# Source: US10117890B2, “Methods and compositions for treating pain” (Academia Sinica, priority 2012, dated 2018)
# Entries after “also recorded” stand apart in the source; their conditions may differ.
# Key:
# [1] = system: acid(ASIC3)-induced chronic muscle pain; assay: Acid-induced chronic muscle pain model (repeated intramuscular acid injection, von Frey test); assay type: in vivo, mice; conditions: T1-11 4 pmole, co-injected with acid saline pH 4.0 into gastrocnemius muscle
# From the text: Adult (8- to 12-wk-old) C57/BL6 mice were used. All procedures followed the Guide for the Use of Laboratory Animals (National Academy Press, Washington D.C., USA) and were approved by the Institutional Animal Care and Use Committee of Academia Sinica. We aimed to minimize the number of animals used and their suffering without compromising the quality of the experiments. The generation and genotyping of Tac1^−/− mice and Asic3^−/− mice were as described. Both null mutant mice were backcrossed to C57/BL6 for 10 generations to establish a congenic strain. Congenic Tac1^−/− Asic3^−/− mice were offspring of Tacl^+/− and Asic3^+/− intercrosses.
# Mice received an intramuscular acid injection in the gastrocnemius muscle (GM) containing 20 μl acid saline (pH 4.0) with or without (Sar^9, Met(O2)^11)-substance P (SP; 4, 10, or 40 μM) or 100 μM RP67580 or 200 μM XE991. Mechanical hyperalgesia was assessed by applying a 0.2-mN von Frey filament to the plantar surface of both hind paws of mice. Mice were acclimatized in an acrylic cubicle for 60 min before testing. A positive response was defined as the foot lifting when the von Frey filament was applied. For each paw, the filament was applied 5 times at 30-sec intervals. Responses of the paw to mechanical stimuli were measured before injection and at 4 and 24 hr and 5 days after the first acid injection (day 0) and at 4, 24, and 72 hr and 1 week after the second acid injection (day 5). For single-injection experiments, responses to mechanical stimuli were measured before the injection, at 4 hr and at 1, 3, 5, 7, 9, 11, 13, 15 and 22 days after the injection or at 4, 24, 48 hr and 7 and 14 days after the injection. NK1-selective agonist ((Sar^9, Met(O2)^11)—SP) was from Sigma Chemical (St. Louis, Mo.). NK1-selective antagonist (RP67580) and XE991 were from Tocris (Avonmouth, UK). The experimenters were blinded to the experimental manipulations. The person who conducted von Frey test had no information of the mouse genotypes or drug injections.
# [2] = system: muscle nociceptors (ASIC3-positive muscle afferent DRG neurons expressing ISP-O); assay: Whole-cell patch-clamp recording of outward currents in muscle afferent DRG neurons; assay type: cell-based, mice
# Experimental: The digested DRG neurons were washed with fetal calf serum (FCS)-free DMEM or DMEM containing 10% FCS during each treatment. Fully digested DRGs were triturated and plated on poly-L-lysine-coated cover slides. Cell cultures were maintained in a 5% CO2 incubator at 37° C.
# Whole-cell patch-clamp recordings of muscle-afferent neurons involved use of Axopatch MultiClamp 700B (Axon Instruments). Neurons with membrane potential >−40 mV were discarded. The bridge was balanced in current-clamp recording, and the series resistance was compensated 70% in voltage-clamp recording with […] 700B compensation circuitry. All experiments were performed at room temperature (21-25° C.) and completed within 30 hr post-seeding. Unless specifically mentioned, the patch pipettes were prepared in 1-5 MΩ and filled with internal solution containing (in mM) 100 KCl, 2 Nae-ATP, 0.3 Na3-GTP, 10 EGTA, 5 MgCl2, and 40 HEPES, adjusted to pH 7.4 with KOH. Recording cells were superfused in artificial cerebrospinal fluid (ACSF) by control with gravitational force. The ACSF contained (in mM) 130 NaCl, 5 KCl, 1 MgCl2, 2 CaCl2, 10 glucose, and 20 HEPES, adjusted to pH 7.4 with NaOH. Osmolarity was adjusted to 300 mOsm. The acidic ACSF was titrated to pH 6.8 by […]. […] If not specifically mentioned, drugs listed above were from Sigma Chemical (St. Louis, Mo.).
# The procedure was repeated at least 2 times to ensure consistent data. […] ACSF-containing compounds were superfused for 1 min to ensure complete replacement of previous perfusate between treatments. […] A recording pipette containing 1 mM GDP-β-S was used in GTP dialysis. The GABA-B current was induced by 100 μM Baclofen at the beginning of dialysis (0, 1 and 2 min after whole-cell patch clamp). Then, Baclofen was used to re-stimulate the dialyzed neurons after 10-min dialysis (10, 11 and 12 min after whole-cell patch clamp).
# ASIC3 = assay: Whole-cell patch clamp of acid-induced current in CHO cells transfected with ASIC3; assay type: cell-based
# [3] = system: acid-induced chronic muscle pain after genistein treatment; assay: Modified acid-induced chronic muscle pain model with genistein treatment (fibromyalgia model); assay type: in vivo, mice
# Experimental: Panel A: a diagram showing that mice were first received an intramuscular injection of genistein (a tyrosine kinase inhibitor) and an acid saline to one side of gastrocnemius muscle, and then pain behaviors were assayed by using von-Frey filament test at 4 hr (D0) and until 29 days (D29) after acid injection. Panel B: is a chart showing that the single acid injection induced long-lasting chronic hyperalgesia in mice with genistein pretreatment (open circles, n=5), but only transient hyperalgesia in mice without genistein pretreatment (filled circles, n=4).
# Mice received an intramuscular acid injection in the gastrocnemius muscle (GM) containing 20 μl acid saline (pH 4.0) with or without (Sar^9, Met(O2)^11)-substance P (SP; 4, 10, or 40 μM) or 100 μM RP67580 or 200 μM XE991. Mechanical hyperalgesia was assessed by applying a 0.2-mN von Frey filament to the plantar surface of both hind paws of mice. […] Responses of the paw to mechanical stimuli were measured before injection and at 4 and 24 hr and 5 days after the first acid injection (day 0) and at 4, 24, and 72 hr and 1 week after the second acid injection (day 5). For single-injection experiments, responses to mechanical stimuli were measured before the injection, at 4 hr and at 1, 3, 5, 7, 9, 11, 13, 15 and 22 days after the injection or at 4, 24, 48 hr and 7 and 14 days after the injection. […]
# ICS-induced pain = assay: Intermittent cold stress (ICS) mouse model of fibromyalgia, von Frey test; assay type: in vivo, mice
# Experimental: Mechanical hyperalgesia was assessed by applying a 0.2 mN von Frey filament to the plantar surface of both hind paws. For each paw, the filament was applied for 5 times at 30-s intervals.
# To induce fibromyalgia-like symptoms, mice were treated with intermittent cold stress, which produces long-lasting (more than 2 weeks) thermal hyperalgesia and mechanical allodynia, predominantly in females. Method: Mice were placed on stainless mesh plate in a cold room at 4° C. overnight (from 4:30 pm to 10:00 am), followed by intermittent cold stress with environment temperatures alternating between 24 and 4° C. every 30 min, from 10:00 am to 4:30 pm. These procedures were repeated twice. On day 3, the mice were adapted to 24 C for 1 h before behavioral testing.
# The second fibromyalgia model is developed by Ueda's group, in which mice were treated with intermittent cold stress for 2 days (Nishiyori & Ueda, 2008). Mice treated with intermittent cold stress will develop long-lasting (>2 weeks) mechanical and thermal hyperalgesia. Analgesic effect of T1-11 was tested in these mice 5 day after intermittent cold stress (ICS). […] Moreover, we found T1-11 and substance P have synergistic effect in treating the ICS-induced pain.
smiles,measurement,setting,value
"OC[C@H]1O[C@@H](n2cnc3c(NCc4ccc(O)cc4)ncnc32)[C@H](O)[C@@H]1O [T1-11, N^6-(4-hydroxybenzyl)adenosine]","acid-induced hyperalgesia, co-injection of acid and T1-11",[1],abolished the transient hyperalgesia and prevented the development of chronic hyperalgesia; also recorded: still had analgesic effects
same,IT1-11 in A2A−/− muscle afferent DRG neurons,[2]; A2A−/− neurons,not changed
same,EC50,"[2]; Mus musculus, DRG neuron, peak whole-cell current, 1, 3, 10, 30 and 100 nM, n=11, read-out: EC50 of T1-11-induced outward current (IT1-11)",1.3 nM
same,induction of outward current in ASIC3/SP-expressing muscle DRG neurons,[2]; SP-sensitive muscle nociceptors,elicited a slow inactivating outward current
same,effect on M-type potassium current,"[2]; voltage shift from −50 mV to −20 mV, muscle afferent neurons expressing ISP-O",enhanced M current
same,acid-induced current in CHO cells transfected with ASIC3,ASIC3,blocked
same,analgesic effect on mice that have developed chronic muscle pain,[3]; T1-11 75-150 μg/kg (i.p.),dose-dependent analgesic effect
same,"hyperalgesia after genistein pretreatment and single acid injection, co-injection of acid and T1-11","[3]; co-injection with acid, n=6, D0 to D29",only showed the transient hyperalgesia
same,"analgesic effect on ICS-treated mice, T1-11 alone",ICS-induced pain; T1-11 3 μg/kg alone,did not show analgesic effect
same,"analgesic effect on ICS-treated mice, combination",ICS-induced pain; T1-11 3 μg/kg combined with 0.6 mg/kg SM-substance P,showed analgesic effect
same,analgesic effect on mice treated with ICS,ICS-induced pain; T1-11 30 ug/kg,had analgesic effect
same,therapeutic dose to treat the ICS-induced pain,"ICS-induced pain; i.p., 5 day after ICS",0.03 mg/kg
